Results published in US20250099536A1, “PRISTINAMYCIN IA AND FLOPRISTIN COMBINATIONS IN TREATING OR PREVENTING BACTERIAL INFECTIONS” (AIMMAX THERAPEUTICS, INC., priority 2021, published 2025).
In brackets after ≈: the same amount, converted by molar mass. Where two headings read alike, the source gives them in different places. Each block holds one compound with its values, some of them ahead of it. Positions of bridges follow the written chain, without caps; N, C: chain ends. Non-standard residues stand in square brackets, D forms with d. Residues, ends and D or L forms follow the SMILES beside them. *: point of attachment. NMePhe(4-NMe2) = CN[C@@H](Cc1ccc(N(C)C)cc1)C(=O)O; Pip(4-oxo) = O=C1CCN[C@H](C(=O)O)C1; Picolinoyl(3-OH) = O=C(c1ncccc1O)*; Phg = N[C@H](C(=O)O)c1ccccc1; dAbu = CC[C@@H](N)C(=O)O

Experiments:
Neisseria gonorrhoeae = experiment: Broth microdilution MIC across streptogramin B:A ratios; format: cell-based
Streptococcus pneumoniae [1] = experiment: as above; format: cell-based
Staphylococcus aureus = experiment: as above; format: cell-based
Mycoplasma genitalium = experiment: MIC across streptogramin B:A ratios (CLSI mycoplasma method); format: cell-based; settings: 10 strains and isolates
Streptococcus pneumoniae [2] = experiment: MBC assay; format: cell-based; settings: S. pneumoniae strains evaluated
[3] = test system: S. aureus BAA-1717 strain; experiment: MIC against the infecting strain of the thigh model; settings: Staphylococcus aureus, BAA1717

SMILES: CC1=C\[C@@H](O)C[C@@H](F)Cc2nc(co2)C(=O)N2CCC[C@@H]2C(=O)O[C@H](C(C)C)[C@H](C)/C=C/C(=O)NC\C=C\1 [CBA1 0:100, flopristin]
MIC (Neisseria gonorrhoeae; strain ATCC 49226): 0.12 µg/mL
MIC (Neisseria gonorrhoeae; strain CDC 0167): 0.03 µg/mL
MIC (Neisseria gonorrhoeae; strain CDC 0175): 0.03 µg/mL
MIC (Neisseria gonorrhoeae; strain CDC 0177): 0.06 µg/mL
MIC (Neisseria gonorrhoeae; strain CDC 0181): 0.12 µg/mL
MIC (Neisseria gonorrhoeae; strain CDC 0194): 0.06 µg/mL
MIC (Neisseria gonorrhoeae; strain MMX 6921): 0.12 µg/mL
MIC (Neisseria gonorrhoeae; strain WHO F): 0.015 µg/mL
MIC (Neisseria gonorrhoeae; strain WHO G): 0.12 µg/mL
MIC (Neisseria gonorrhoeae; strain WHO K): 0.25 µg/mL
MIC (Neisseria gonorrhoeae; strain WHO L): 0.12 µg/mL
MIC (Neisseria gonorrhoeae; strain WHO M): 0.12 µg/mL
MIC (Neisseria gonorrhoeae; strain WHO N): 0.12 µg/mL
MIC (Neisseria gonorrhoeae; strain WHO O): 0.12 µg/mL
MIC (Neisseria gonorrhoeae; strain WHO P): 0.5 µg/mL
MIC (Neisseria gonorrhoeae; strain WHO U): 0.12 µg/mL
MIC (Neisseria gonorrhoeae; strain WHO V): 0.25 µg/mL
MIC (Neisseria gonorrhoeae; strain WHO W): 0.12 µg/mL
MIC (Neisseria gonorrhoeae; strain WHO X): 0.12 µg/mL
MIC (Neisseria gonorrhoeae; strain WHO Y): 0.12 µg/mL
MIC (Streptococcus pneumoniae [1]; strain ATCC 49619): 2 µg/mL
MIC (Streptococcus pneumoniae [1]; strain ATCC 700677): 8 µg/mL
MIC (Streptococcus pneumoniae [1]; strain MMX 3031): 4 µg/mL
MIC (Streptococcus pneumoniae [1]; strain MMX 3033): 4 µg/mL
MIC (Streptococcus pneumoniae [1]; strain MMX 4937): 2 µg/mL
MIC (Staphylococcus aureus; strain ATCC 29213): 1 µg/mL
MIC (Staphylococcus aureus; strain ATCC BAA 977): 1 µg/mL
MIC (Staphylococcus aureus; strain ATCC BAA-976): 0.5 µg/mL
MIC (Staphylococcus aureus; strain MMX 2336): 0.5 µg/mL
MIC (Staphylococcus aureus; strain MMX 3035): 0.5 µg/mL
MIC (Staphylococcus aureus; strain MMX 3037): 0.25 µg/mL
MIC (Staphylococcus aureus; strain MMX 3095): 1 µg/mL
MIC (Staphylococcus aureus; strain MMX 3098): 1 µg/mL
MIC (Staphylococcus aureus; strain MMX 3885): 0.5 µg/mL
MIC (Staphylococcus aureus; strain MMX 3983): 0.5 µg/mL
MIC (Staphylococcus aureus; strain MMX 4670): 0.25 µg/mL
MIC (Staphylococcus aureus; strain MMX 5787): 2 µg/mL
MIC (Staphylococcus aureus; strain NRS 271): 2 µg/mL
MIC (Staphylococcus aureus; strain NRS 382): 1 µg/mL
MIC (Staphylococcus aureus; strain NRS 384): 1 µg/mL
MIC range (Mycoplasma genitalium): 0.015 to 0.5 µg/mL
Strains against which bactericidal (MBC divided by MIC ≤4) (Streptococcus pneumoniae [2]): 5 out of the 5

SMILES: CC(=O)NC[C@H]1CN(c2ccc(N3CCOCC3)c(F)c2)C(=O)O1 [linezolid]
MIC [3]: 2 µg/mL (≈ 5.93 µM)

SMILES: CN[C@H](CC(C)C)C(=O)N[C@H]1C(=O)N[C@@H](CC(N)=O)C(=O)N[C@H]2C(=O)N[C@H]3C(=O)N[C@H](C(=O)N[C@H](C(=O)O)c4cc(O)cc(O)c4-c4cc3ccc4O)[C@H](O)c3ccc(c(Cl)c3)Oc3cc2cc(c3O[C@@H]2O[C@H](CO)[C@@H](O)[C@H](O)[C@H]2O[C@H]2C[C@](C)(N)[C@H](O)[C@H](C)O2)Oc2ccc(cc2Cl)[C@H]1O [vancomycin]
MIC [3]: 1 µg/mL (≈ 0.69 µM)

More lines, main results first:

MIC (Neisseria gonorrhoeae; Neisseria gonorrhoeae, ATCC49226, strain ATCC 49226, read-out: MIC): 0.5 µg/mL
MIC (Neisseria gonorrhoeae; Neisseria gonorrhoeae, strain CDC 0167, read-out: MIC): 16 µg/mL
MIC (Neisseria gonorrhoeae; Neisseria gonorrhoeae, strain CDC 0175, read-out: MIC): 16 µg/mL
MIC (Neisseria gonorrhoeae; Neisseria gonorrhoeae, strain CDC 0177, read-out: MIC): 4 µg/mL
MIC (Neisseria gonorrhoeae; Neisseria gonorrhoeae, strain CDC 0181, read-out: MIC): > 16 µg/mL
MIC (Neisseria gonorrhoeae; Neisseria gonorrhoeae, strain CDC 0194, read-out: MIC): 0.5 µg/mL
MIC (Neisseria gonorrhoeae; Neisseria gonorrhoeae, strain MMX 6921, read-out: MIC): 16 µg/mL
MIC (Neisseria gonorrhoeae; Neisseria gonorrhoeae, strain WHO F, read-out: MIC): 0.12 µg/mL
MIC (Neisseria gonorrhoeae; Neisseria gonorrhoeae, strain WHO G, read-out: MIC): 0.25 µg/mL
MIC (Neisseria gonorrhoeae; Neisseria gonorrhoeae, strain WHO K, read-out: MIC): 0.5 µg/mL
MIC (Neisseria gonorrhoeae; Neisseria gonorrhoeae, strain WHO L, read-out: MIC): 0.5 µg/mL
MIC (Neisseria gonorrhoeae; Neisseria gonorrhoeae, strain WHO M, read-out: MIC): 0.5 µg/mL
MIC (Neisseria gonorrhoeae; Neisseria gonorrhoeae, strain WHO N, read-out: MIC): 0.25 µg/mL
MIC (Neisseria gonorrhoeae; Neisseria gonorrhoeae, strain WHO O, read-out: MIC): 0.5 µg/mL
MIC (Neisseria gonorrhoeae; Neisseria gonorrhoeae, strain WHO P, read-out: MIC): 8 µg/mL
MIC (Neisseria gonorrhoeae; Neisseria gonorrhoeae, strain WHO U, read-out: MIC): 8 µg/mL
MIC (Neisseria gonorrhoeae; Neisseria gonorrhoeae, strain WHO V, read-out: MIC): > 16 µg/mL
MIC (Neisseria gonorrhoeae; Neisseria gonorrhoeae, strain WHO W, read-out: MIC): 0.5 µg/mL
MIC (Neisseria gonorrhoeae; Neisseria gonorrhoeae, strain WHO X, read-out: MIC): 1 µg/mL
MIC (Neisseria gonorrhoeae; Neisseria gonorrhoeae, strain WHO Y, read-out: MIC): 1 µg/mL
SMILES: CC[C@H]1OC(=O)[C@H](C)[C@@H](O[C@H]2C[C@@](C)(OC)[C@@H](O)[C@H](C)O2)[C@H](C)[C@@H](O[C@@H]2O[C@H](C)C[C@H](N(C)C)[C@H]2O)[C@](C)(O)C[C@@H](C)CN(C)[C@H](C)[C@@H](O)[C@]1(C)O [AZI, Azithromycin, reference compound]

MIC (Neisseria gonorrhoeae; strain ATCC 49226): >64 µg/mL
MIC (Neisseria gonorrhoeae; strain CDC 0167): >64 µg/mL
MIC (Neisseria gonorrhoeae; strain CDC 0175): >64 µg/mL
MIC (Neisseria gonorrhoeae; strain CDC 0177): >64 µg/mL
MIC (Neisseria gonorrhoeae; strain CDC 0181): >64 µg/mL
MIC (Neisseria gonorrhoeae; strain CDC 0194): 32 µg/mL
MIC (Neisseria gonorrhoeae; strain MMX 6921): >64 µg/mL
MIC (Neisseria gonorrhoeae; strain WHO F): 32 µg/mL
MIC (Neisseria gonorrhoeae; strain WHO G): >64 µg/mL
MIC (Neisseria gonorrhoeae; strain WHO K): >64 µg/mL
MIC (Neisseria gonorrhoeae; strain WHO L): 64 µg/mL
MIC (Neisseria gonorrhoeae; strain WHO M): 64 µg/mL
MIC (Neisseria gonorrhoeae; strain WHO N): >64 µg/mL
MIC (Neisseria gonorrhoeae; strain WHO O): 64 µg/mL
MIC (Neisseria gonorrhoeae; strain WHO P): >64 µg/mL
MIC (Neisseria gonorrhoeae; strain WHO U): >64 µg/mL
MIC (Neisseria gonorrhoeae; strain WHO V): >64 µg/mL
MIC (Neisseria gonorrhoeae; strain WHO W): 64 µg/mL
MIC (Neisseria gonorrhoeae; strain WHO X): >64 µg/mL
MIC (Neisseria gonorrhoeae; strain WHO Y): 32 µg/mL
MIC (Streptococcus pneumoniae [1]; strain ATCC 49619): 1 µg/mL
MIC (Streptococcus pneumoniae [1]; strain ATCC 700677): 32 µg/mL
MIC (Streptococcus pneumoniae [1]; strain MMX 3031): 0.5 µg/mL
MIC (Streptococcus pneumoniae [1]; strain MMX 3033): 2 µg/mL
MIC (Streptococcus pneumoniae [1]; strain MMX 4937): 1 µg/mL
MIC (Staphylococcus aureus; strain ATCC 29213): 8 µg/mL
MIC (Staphylococcus aureus; strain ATCC BAA 977): 16 µg/mL
MIC (Staphylococcus aureus; strain ATCC BAA-976): 8 µg/mL
MIC (Staphylococcus aureus; strain MMX 2336): 8 µg/mL
MIC (Staphylococcus aureus; strain MMX 3035): >64 µg/mL
MIC (Staphylococcus aureus; strain MMX 3037): >64 µg/mL
MIC (Staphylococcus aureus; strain MMX 3095): 8 µg/mL
MIC (Staphylococcus aureus; strain MMX 3098): 8 µg/mL
MIC (Staphylococcus aureus; strain MMX 3885): 8 µg/mL
MIC (Staphylococcus aureus; strain MMX 3983): >64 µg/mL
MIC (Staphylococcus aureus; strain MMX 4670): >64 µg/mL
MIC (Staphylococcus aureus; strain MMX 5787): >64 µg/mL
MIC (Staphylococcus aureus; strain NRS 271): 8 µg/mL
MIC (Staphylococcus aureus; strain NRS 382): >64 µg/mL
MIC (Staphylococcus aureus; strain NRS 384): 8 µg/mL
MIC range (Mycoplasma genitalium): 2 to 16 µg/mL
SMILES: CC[C@H]1NC(=O)[C@@H](NC(=O)c2ncccc2O)[C@@H](C)OC(=O)[C@H](c2ccccc2)NC(=O)[C@@H]2CC(=O)CCN2C(=O)[C@H](Cc2ccc(N(C)C)cc2)N(C)C(=O)[C@@H]2CCCN2C1=O [CBA1 100:0, pristinamycin IA] ({Picolinoyl(3-OH)}-T[dAbu]P[NMePhe(4-NMe2)][Pip(4-oxo)][Phg]; ester 1-C)
Strains against which bactericidal (MBC divided by MIC ≤4) (Streptococcus pneumoniae [2]): 2 out of the 4
